Laboratory results from patent US20090306373A1, “4,7-DIHYDROTHIENO[2,3-B]PYRIDINE COMPOUNDS AND PHARMACEUTICAL COMPOSITIONS” (priority 2005, published 2009).

system: alpha-MyHC; experiment: alpha-MyHC cytoblot in neonatal rat ventricular myocytes (NRVM); assay type: cell-based; conditions: Rattus norvegicus, Ventricular myocyte, Table 1, 72 hours, concentration giving 50% of maximum response
Description: In vitro activity of each compound is measured using the alpha-MyHC cytoblot process. Briefly, neonatal rat ventricular myocytes (NRVM) at 120,000 cells/ml in HyQ DME/High modified culture media supplemented with 10% charcoal/dextran treated FBS, 0.1% Nutridoma-SP, 1:100 MEM non-essential amino acids, 1:50 MEM amino acids solution w/o L-Gln, 1 mM sodium pyruvate and 1:100 P/S/G, are plated on gelatin coated sterile 384-well plates (Costar 3712) at 6,000 cells per well. Cells are incubated overnight at 37° C. in 5% CO2 100% humidity. Following overnight growth the media is changed to HyQ DME/High modified culture media supplemented with 0.3% Nutridoma-SP, 1:100 MEM non-essential amino acids, 1:50 MEM amino acids solution w/o L-Gln, 1 mM sodium pyruvate and 1:100 P/S/G. Cells are then dosed with serial dilutions of each compound in DMSO. Each concentration in the dose range is dosed in quadruplicate. Dosing is done in such a way so that the final DMSO concentration was 0.44%. Compound dilutions are 3-fold with the final top concentration of 10 uM. […] Following dosing, the cells are incubated for 72 hours at 37° C. in 5% CO2 100% humidity and then processed with the cytoblot method. Briefly, cell media is aspirated and cell monolayers washed with PBS and fixed with 100% methanol for 30 minutes. Fixed cells are then blocked with PBS, 0.05% Tween-20, 1% BSA, for 1 hour. Following blocking, cells are incubated with primary alpha-MyHC-specific antibody (1:30 dilution of BA-G5 hybridoma conditioned media, ATCC HB276) for 1 hour. Following incubation with the primary antibody, cells are washed with PBS, 0.05% Tween-20, 1% BSA and incubated with secondary antibody (1:1000 dilution, goat-anti-mouse HRP, Southern Biotech, 1031-05) for 1 hour. Following incubation with the secondary antibody, wells are washed and incubated in SuperSignal, West Dura HRP-luminescence substrate for 30 seconds under shaking at room temperature. Luminescence is measured using a Packard Fusion plate reader. […] RLU values are converted into percent fraction of low control and dose responses are fitted to a sigmoidal 4-parameter equation (XLFit, IDBS) where the EC50 and Max Plateau values were extracted. […] Max Plateau is the […] maximum value determined by the dose response fit.

Question: With `CC(=O)C1=C(C)Nc2sc(C(=O)c3cccc([N+](=O)[O-])c3)c(N)c2C1c1ccccc1Cl` (stereo not drawn) [Compound 4, 1-[3-amino-4-(2-chloro-phenyl)-6-methyl-2-(3-nitro-benzoyl)-4,7-dihydro-thieno[2,3-b]pyridin-5-yl]-ethanone] as the compound, how does the EC50 read?
Answer: Its EC50 is 85.7 nM.

same assay, conditions: Rattus norvegicus, Ventricular myocyte, Table 4, 72 hours, concentration giving 50% of maximum response

Question: `CC(=O)C1=C(C)Nc2sc(C(=O)c3ccc(Cl)c(Cl)c3)c(N)c2C1(C)c1cccc(F)c1` (stereo not drawn) [Compound 207, 1-[3-amino-2-(3,4 dichloro-benzoyl)-4-(3 fluoro-phenyl)-4,6-dimethyl-4,7 dihydro-thieno[2,3-b]pyridin-5-yl]-ethanone] was tested. Which EC50 did it give?
Answer: The EC50 was 3340 nM.

Question: For `CCOC(=O)C1=C(C)Nc2sc(C(=O)c3ccccc3)c(N)c2C1(C)c1ccccc1` (stereo not drawn) [Compound 206], which EC50 is on record?
Answer: Its EC50 is 936 nM.

same assay, conditions: Table 1, 72 hours, fitted maximum, percent fraction of low control (vehicle), in %

Question: For `CCC(=O)C1=C(CC)Nc2sc(C(=O)c3ccccc3)c(N)c2C1c1c(F)cccc1F` (stereo not drawn) [Compound 69], which “Max Plateau” value is on record?
Answer: Its value is 221.36 ± 15.94.

Question: For `CCC(=O)C1=C(CC)Nc2sc(C(=O)c3cccc(C(=O)OC)c3)c(N)c2C1c1ccccc1` (stereo not drawn) [Compound 74], which “Max Plateau” value is on record?
Answer: Its value is 262.81 ± 32.38.

Question: Which “Max Plateau” value does the source give for `CCC(=O)C1=C(CC)Nc2sc(C(=O)c3ccccc3)c(N)c2C1c1cc(F)cc(F)c1` (stereo not drawn) [Compound 105] here?
Answer: The value was 273.18 ± 37.33.

Question: Which “Max Plateau” value does the source give for `CCC(=O)C1=C(CC)Nc2sc(C(=O)c3ccc(Cl)cc3Cl)c(N)c2C1c1ccccc1` (stereo not drawn) [Compound 70] here?
Answer: Its value is 191.97 ± 13.09.

Question: How did the “Max Plateau” value turn out when `CC(=O)C1=C(C)Nc2sc(C(=O)c3ccccc3)c(N)c2C1c1ccccc1` (stereo not drawn) [Compound 3] was run?
Answer: The value was 250.88 ± 32.62.

Question: Which “Max Plateau” value does the source give for `CCC(=O)C1=C(CC)Nc2sc(C(=O)c3ccc(C#N)cc3)c(N)c2C1c1ccccc1` (stereo not drawn) [Compound 112] here?
Answer: Its value is 266.67 ± 57.74.

Question: `CC(=O)C1=C(C)Nc2sc(C(=O)c3ccccc3)c(N)c2C1c1ccc(Cl)cc1` (stereo not drawn) [Compound 21] was tested. Which “Max Plateau” value did it give?
Answer: The value was 193.20 ± 49.26.

Question: Which “Max Plateau” value does the source give for `CCC(=O)C1=C(CC)Nc2sc(C(=O)c3ccc(Cl)c(Cl)c3)c(N)c2C1c1cccc2ccccc12` (stereo not drawn) [Compound 85] here?
Answer: Its value is 105.90 ± 6.18.

Question: `CC(=O)C1=C(C)Nc2sc(C(=O)c3ccc(Cl)c(Cl)c3)c(N)c2C1c1ccc(C)cc1` (stereo not drawn) [Compound 45] was tested. Which “Max Plateau” value did it give?
Answer: Its value is 108.63 ± 9.14.

Question: How did the “Max Plateau” value turn out when `CCC(=O)C1=C(CC)Nc2sc(C(=O)c3cccc(C(=O)O)c3)c(N)c2C1c1ccccc1` (stereo not drawn) [Compound 77] was run?
Answer: The value was 220.00 ± 10.00.

Question: `CCC(=O)C1=C(CC)Nc2sc(C(=O)c3ccc(F)cc3)c(N)c2C1c1ccccc1` (stereo not drawn) [Compound 79] was tested. Which “Max Plateau” value did it give?
Answer: The value was 241.90 ± 15.79.

Question: For `CC(=O)C1=C(C)Nc2sc(C(=O)c3ccccc3)c(N)c2C1C1CCCCC1` (stereo not drawn) [Compound 26], which “Max Plateau” value is on record?
Answer: Its value is 185.33 ± 55.04.

Question: `CCC(=O)C1=C(CC)Nc2sc(C(=O)c3ccc(Cl)c(Cl)c3)c(N)c2C1c1ccc(OC)cc1F` (stereo not drawn) [Compound 81] was tested. Which “Max Plateau” value did it give?
Answer: Its value is 184.00 ± 15.51.

Question: For `CC(=O)C1=C(C)Nc2sc(C(=O)c3ccc(Cl)c(Cl)c3)c(N)c2C1c1ccc(F)cc1` (stereo not drawn) [Compound 50], which “Max Plateau” value is on record?
Answer: Its value is 190.79 ± 27.94.

Question: How did the “Max Plateau” value turn out when `CC(C)C(=O)C1=C(C(C)C)Nc2sc(C(=O)c3ccc(Cl)c(Cl)c3)c(N)c2C1c1ccccc1` (stereo not drawn) [Compound 46] was run?
Answer: Its value is 98.33 ± 4.08.

Question: `CCC(=O)C1=C(CC)Nc2sc(C(=O)c3ccc(Cl)c(Cl)c3)c(N)c2C1c1ccccc1C` (stereo not drawn) [Compound 56] was tested. Which “Max Plateau” value did it give?
Answer: Its value is 293.74 ± 50.82.

Question: Which “Max Plateau” value does the source give for `CCC(=O)C1=C(CC)Nc2sc(C(=O)c3ccc(Cl)c(Cl)c3)c(N)c2C1c1cc(F)cc(F)c1` (stereo not drawn) [Compound 100] here?
Answer: Its value is 262.04 ± 31.65.

Question: For `CCC(=O)C1=C(CC)Nc2sc(C(=O)c3c(Cl)cccc3Cl)c(N)c2C1c1ccccc1F` (stereo not drawn) [Compound 107], which “Max Plateau” value is on record?
Answer: The value was 273.85 ± 29.06.

Question: For `CCC(=O)C1=C(CC)Nc2sc(C(=O)c3ccc(Cl)c(Cl)c3)c(N)c2C1c1cccc([N+](=O)[O-])c1` (stereo not drawn) [Compound 58], which “Max Plateau” value is on record?
Answer: The value was 232.20 ± 56.57.

Question: For `CC(=O)C1=C(C)Nc2sc(C(=O)c3ccc(Cl)c(Cl)c3)c(N)c2C1c1ccc(O)cc1Cl` (stereo not drawn) [Compound 29], which “Max Plateau” value is on record?
Answer: The value was 281.88 ± 32.78.

Question: For `CCCC(=O)C1=C(CCC)Nc2sc(C(=O)c3cc(Cl)ccc3Cl)c(N)c2C1c1ccccc1F` (stereo not drawn) [Compound 92], which “Max Plateau” value is on record?
Answer: The value was 189.00 ± 25.40.

Question: Which “Max Plateau” value does the source give for `CCCC(=O)C1=C(CCC)Nc2sc(C(=O)c3ccc(Cl)cc3Cl)c(N)c2C1c1ccccc1F` (stereo not drawn) [Compound 91] here?
Answer: Its value is 143.39 ± 20.69.

Question: Which “Max Plateau” value does the source give for `CCC(=O)C1=C(CC)Nc2sc(C(=O)c3ccc(Cl)c(Cl)c3)c(N)c2C1c1ccccc1C(F)(F)F` (stereo not drawn) [Compound 60] here?
Answer: Its value is 100.00 ± 0.00.

Question: For `CCC(=O)C1=C(CC)Nc2sc(C(=O)c3ccccc3)c(N)c2C1c1cccnc1` (stereo not drawn) [Compound 68], which “Max Plateau” value is on record?
Answer: Its value is 175.88 ± 14.54.

Question: `CC(=O)C1=C(C)Nc2sc(C(=O)c3ccc(Cl)c(Cl)c3)c(N)c2C1c1cccs1` (stereo not drawn) [Compound 41] was tested. Which “Max Plateau” value did it give?
Answer: Its value is 178.47 ± 7.82.

Question: For `CCCC(=O)C1=C(CCC)Nc2sc(C(=O)c3ccc(Cl)c(Cl)c3)c(N)c2C1c1ccccc1F` (stereo not drawn) [Compound 87], which “Max Plateau” value is on record?
Answer: Its value is 187.66 ± 12.24.

Question: `CCC(=O)C1=C(CC)Nc2sc(C(=O)c3cccc(Cl)c3)c(N)c2C1c1ccccc1` (stereo not drawn) [Compound 66] was tested. Which “Max Plateau” value did it give?
Answer: The value was 306.19 ± 54.21.

Question: Which “Max Plateau” value does the source give for `CCC(=O)C1=C(CC)Nc2sc(C(=O)c3cccc(F)c3)c(N)c2C1c1ccccc1` (stereo not drawn) [Compound 49] here?
Answer: Its value is 299.18 ± 42.31.

same assay, conditions: Table 2, 72 hours, fitted maximum, percent fraction of low control (vehicle), in %

Question: For `COC(=O)C1=C(C(C)C)Nc2sc(C(=O)c3ccc(Cl)c(Cl)c3)c(N)c2C1c1ccccc1` (stereo not drawn) [Compound 116], which “Max Plateau” value is on record?
Answer: Its value is 107.57.

Question: How did the “Max Plateau” value turn out when `COC(=O)C1=C(C(C)C)Nc2sc(C(=O)c3cccc(C#N)c3)c(N)c2C1c1ccccc1F` (racemic) [Compound 177] was run?
Answer: Its value is 162.75.

Question: With `CCOC(=O)C1=C(CC)Nc2sc(C(=O)c3cc(Cl)ccc3Cl)c(N)c2C1c1ccccc1` (stereo not drawn) [Compound 146] as the compound, how does the “Max Plateau” value read?
Answer: Its value is 213.49.

Question: With `CCC1=C(C(=O)OC(C)CC)C(c2ccccc2F)c2c(sc(C(=O)c3ccc(Cl)c(Cl)c3)c2N)N1` (single isomer, unassigned) [Compound 163] as the compound, how does the “Max Plateau” value read?
Answer: The value was 224.85.

Question: `CCOC(=O)C1=C(CC)Nc2sc(C(=O)c3cc(C(F)(F)F)cc(C(F)(F)F)c3)c(N)c2C1c1ccccc1` (stereo not drawn) [Compound 149] was tested. Which “Max Plateau” value did it give?
Answer: The value was 207.18.

Question: With `COC(=O)C1=C(C2CC2)Nc2sc(C(=O)c3ccc(Cl)c(Cl)c3)c(N)c2C1c1ccccc1F` (stereo not drawn) [Compound 144] as the compound, how does the “Max Plateau” value read?
Answer: The value was 187.17.

Question: With `CCC1=C(C(=O)OC(C)CC)C(c2ccccc2F)c2c(sc(C(=O)c3cccc(C#N)c3)c2N)N1` (single isomer, unassigned) [Compound 166] as the compound, how does the “Max Plateau” value read?
Answer: The value was 219.07.

Question: How did the “Max Plateau” value turn out when `CCC1=C(C(=O)OC)C(c2ccccc2F)c2c(sc(C(=O)c3cccc(C#N)c3)c2N)N1` (stereo not drawn) [Compound 164] was run?
Answer: Its value is 279.90.

Question: With `CCC1=C(C(=O)OC)C(c2ccnc(F)c2)c2c(sc(C(=O)c3cccc(Cl)c3)c2N)N1` (racemic) [Compound 175] as the compound, how does the “Max Plateau” value read?
Answer: Its value is 289.91.

Question: For `CCC1=C(C(=O)OC)C(c2c(F)cccc2F)c2c(sc(C(=O)c3ccc(Cl)c(Cl)c3)c2N)N1` (stereo not drawn) [Compound 137], which “Max Plateau” value is on record?
Answer: Its value is 213.90.

same assay, conditions: Table 3, 72 hours, fitted maximum, percent fraction of low control (vehicle), in %

Question: For `CCNC(=O)C1=C(C)Nc2sc(C(=O)c3ccc(Cl)c(Cl)c3)c(N)c2C1c1ccccc1` (racemic) [Compound 195], which “Max Plateau” value is on record?
Answer: Its value is 126.67 ± 23.09.

same assay, conditions: Table 4, 72 hours, concentration giving 50% of maximum response

Question: How did the EC50 turn out when `CCOC(=O)C1=C(C)Nc2sc(C(=O)c3cccc(Br)c3)c(N)c2C1(C)c1ccccc1` (stereo not drawn) [Compound 197] was run?
Answer: Its EC50 is 792 nM.

same assay, conditions: Table 4, 72 hours, fitted maximum, percent fraction of low control (vehicle), in %

Question: With `CCOC(=O)C1=C(C)Nc2sc(C(=O)c3cccc(Br)c3)c(N)c2C1(C)c1ccccc1` (stereo not drawn) [Compound 197] as the compound, how does the “Max Plateau” value read?
Answer: Its value is 159.55 ± 10.94.

same assay, conditions: Table 5, 72 hours, fitted maximum, percent fraction of low control (vehicle), in %

Question: For `COCCOCN1C(C)=C(C(C)=O)C(c2ccccc2)c2c1sc(C(=O)c1ccccc1)c2N` (racemic) [Compound 209], which “Max Plateau” value is on record?
Answer: The value was 192.74.
